pIC50: −log10 of the molar value. Entries after “also recorded” stand apart in the source; their conditions may differ.
How the values were obtained:
[1] = system: human non-small cell lung cancer H460 cells; details: read-out: IC50, inhibition of proliferation; cited from earlier work
T. brucei cells = assay: AlamarBlue cell viability / growth inhibition of T. brucei; details: 10 to 60 μM, even at 60 µM, 72 h
Experimental: Synergy H1 microplate reader (BioTek) was used with 560/590 nm (excitation/emission) filter settings and relative fluorescence unit (RFU) values were obtained. The percentage of viable cells were calculated from the RFU values.
Trypanosome cells were seeded at 1 × 10^3 cells/ml density in 180 µl in a 96-well culture plate in triplicate. […] DMSO was used as a vehicle control at 0.0075%.

SMILES: CCOc1ccc2cc(C3CC(c4ccc(Br)cc4)=NN3C(=O)CCC(=O)O)c(Cl)nc2c1 (centres unmarked) [TDRL-505, reference compound]
- pIC50 [1]: 4.51
- Effect on T. brucei proliferation (T. brucei cells): did not observe any effect; also recorded: did not show any toxicity

Reference: PMC10359466, “Identification of a small-molecule inhibitor that selectively blocks DNA-binding by Trypanosoma brucei replication protein A1” (Nature Communications, 2023)
